From ChEMBL document CHEMBL3585283, “Synthesis and evaluation of a series of quinolinyl trans-cyanostilbene analogs as anticancer agents” (2014)
The source made the active and inactive calls. The rule behind the calls is not given here.

Experiments:
SK-OV-3 = experiment: Antitumor activity against human SKOV3 cells after 48 hrs; assay type: functional; conditions: SK-OV-3, 48 h
[1] = Antitumor activity against human RPMI8226 cells after 48 hrs; assay type: functional; conditions: RPMI-8226, 48 h
[2] = Antitumor activity against human LOXIMVI cells after 48 hrs; assay type: functional; conditions: LOX IMVI
SK-MEL-2 = experiment: Antitumor activity against human SK-MEL-2 cells after 48 hrs; assay type: functional; conditions: SK-MEL-2, 48 h
M14 = experiment: Antitumor activity against human M14 cells after 48 hrs; assay type: functional; conditions: M14, 48 h
SNB-75 = experiment: Antitumor activity against human SNB75 cells after 48 hrs; assay type: functional; conditions: SNB-75, 48 h
HCT-116 = experiment: Antitumor activity against human HCT116 cells after 48 hrs; assay type: functional; conditions: HCT-116, 48 h
[3] = Antitumor activity against human NCI-ADR-RES cells after 48 hrs; assay type: functional
OVCAR-4 = experiment: Antitumor activity against human OVCAR4 cells after 48 hrs; assay type: functional; conditions: OVCAR-4, 48 h
CCRF-CEM = experiment: Antitumor activity against human CCRF-CEM cells after 48 hrs; assay type: functional
HCT-15 = experiment: Antitumor activity against human HCT15 cells after 48 hrs; assay type: functional; conditions: HCT-15, 48 h
SK-MEL-5 = experiment: Antitumor activity against human SK-MEL-5 cells after 48 hrs; assay type: functional; conditions: SK-MEL-5, 48 h
SF-268 = experiment: Antitumor activity against human SF268 cells after 48 hrs; assay type: functional; conditions: SF-268, 48 h
SW-620 = experiment: Antitumor activity against human SW620 cells after 48 hrs; assay type: functional; conditions: SW-620, 48 h
ACHN = experiment: Antitumor activity against human ACHN cells after 48 hrs; assay type: functional
MDA-MB-468 = experiment: Antitumor activity against human MDA-MB-468 cells after 48 hrs; assay type: functional; conditions: MDA-MB-468, 48 h
MCF7 = experiment: Antitumor activity against human MCF7 cells after 48 hrs; assay type: functional; conditions: MCF7, 48 h
HOP-62 = experiment: Antitumor activity against human HOP62 cells after 48 hrs; assay type: functional; conditions: HOP-62, 48 h
KM12 = experiment: Antitumor activity against human KM12 cells after 48 hrs; assay type: functional; conditions: KM12, 48 h
OVCAR-5 = experiment: Antitumor activity against human OVCAR5 cells after 48 hrs; assay type: functional; conditions: OVCAR-5, 48 h
PC-3 = experiment: Antitumor activity against human PC3 cells after 48 hrs; assay type: functional; conditions: PC-3, 48 h
NCI-H522 = experiment: Antitumor activity against human NCI-H522 cells after 48 hrs; assay type: functional; conditions: NCI-H522, 48 h
[4] = Antitumor activity against human RXF393 cells after 48 hrs; assay type: functional; conditions: RXF 393, 48 h
CAKI-1 = experiment: Antitumor activity against human Caki1 cells after 48 hrs; assay type: functional; conditions: CAKI-1, 48 h
A549 = experiment: Antitumor activity against human A549 cells after 48 hrs; assay type: functional; conditions: A549, 48 h
K562 = experiment: Antitumor activity against human K562 cells after 48 hrs; assay type: functional; conditions: K562, 48 h
[5] = Antitumor activity against human SF295 cells after 48 hrs; assay type: functional; conditions: SF-295, 48 h
NCI-H226 = experiment: Antitumor activity against human NCI-H226 cells after 48 hrs; assay type: functional; conditions: NCI-H226, 48 h
A498 = experiment: Antitumor activity against human A498 cells after 48 hrs; assay type: functional; conditions: A498, 48 h
SR = experiment: Antitumor activity against human SR cells after 48 hrs; assay type: functional
NCI-H322M = experiment: Antitumor activity against human NCI-H322M cells after 48 hrs; assay type: functional
NCI-H460 = experiment: Antitumor activity against human NCI-H460 cells after 48 hrs; assay type: functional; conditions: NCI-H460, 48 h
U-251 = experiment: Antitumor activity against human U251 cells after 48 hrs; assay type: functional; conditions: U-251, 48 h
[6] = Antitumor activity against human SF539 cells after 48 hrs; assay type: functional; conditions: SF-539, 48 h
Malme-3M = experiment: Antitumor activity against human MALME-3M cells after 48 hrs; assay type: functional
[7] = Antitumor activity against human COLO205 cells after 48 hrs; assay type: functional; conditions: COLO 205, 48 h
T47D = experiment: Antitumor activity against human T47D cells after 48 hrs; assay type: functional
MDA-MB-435 = experiment: Antitumor activity against human MDA-MB-435 cells after 48 hrs; assay type: functional; conditions: MDA-MB-435, 48 h
SNB-19 = experiment: Antitumor activity against human SNB19 cells after 48 hrs; assay type: functional; conditions: SNB-19, 48 h
[8] = Antitumor activity against human Hs578T cells after 48 hrs; assay type: functional; conditions: Hs-578T
MDA-MB-231 = experiment: Antitumor activity against human MDA-MB-231 cells after 48 hrs; assay type: functional; conditions: MDA-MB-231, 48 h
DU-145 = experiment: Antitumor activity against human DU145 cells after 48 hrs; assay type: functional; conditions: DU-145, 48 h
TK-10 = experiment: Antitumor activity against human TK10 cells after 48 hrs; assay type: functional; conditions: TK-10, 48 h
[9] = Antitumor activity against human HOP92 cells after 48 hrs; assay type: functional; conditions: HOP-92, 48 h
IGROV-1 = experiment: Antitumor activity against human IGROV1 cells after 48 hrs; assay type: functional; conditions: IGROV-1, 48 h
SK-MEL-28 = experiment: Antitumor activity against human SK-MEL-28 cells after 48 hrs; assay type: functional; conditions: SK-MEL-28, 48 h
[10] = Antitumor activity against human BT549 cells after 48 hrs; assay type: functional; conditions: BT-549, 48 h
OVCAR-8 = experiment: Antitumor activity against human OVCAR8 cells after 48 hrs; assay type: functional; conditions: OVCAR-8, 48 h
HT-29 = experiment: Antitumor activity against human HT-29 cells after 48 hrs; assay type: functional; conditions: HT-29, 48 h
UO-31 = experiment: Antitumor activity against human UO31 cells after 48 hrs; assay type: functional; conditions: UO-31, 48 h
NCI-H23 = experiment: Antitumor activity against human NCI-H23 cells after 48 hrs; assay type: functional; conditions: NCI-H23, 48 h
EKVX = experiment: Antitumor activity against human EKVX cells after 48 hrs; assay type: functional, cell-based
UACC-62 = experiment: Antitumor activity against human UACC62 cells after 48 hrs; assay type: functional; conditions: UACC-62, 48 h
786-0 = experiment: Antitumor activity against human 786-0 cells after 48 hrs; assay type: functional; conditions: 786-0, 48 h
SN12C = experiment: Antitumor activity against human SN12C cells after 48 hrs; assay type: functional
[11] = Antitumor activity against human MOLT4 cells after 48 hrs; assay type: functional; conditions: MOLT-4, 48 h
[12] = Antitumor activity against human HCC2998 cells after 48 hrs; assay type: functional; conditions: HCC 2998, 48 h
HL-60(TB) = experiment: Antitumor activity against human HL-60(TB) cells after 48 hrs; assay type: functional; conditions: HL-60, 48 h
OVCAR-3 = experiment: Antitumor activity against human OVCAR3 cells after 48 hrs; assay type: functional; conditions: OVCAR-3, 48 h

Compound `COc1cc(OC)cc(/C(C#N)=C/c2ccc3ccccc3n2)c1` has a GI50 (SK-OV-3) of 804 nM, a GI50 [1] of 433 nM and a GI50 [2] of 610 nM. It also gave a GI50 (SK-MEL-2) of 522 nM, a GI50 (M14) of 360 nM and a GI50 (SNB-75) of 311 nM. The GI50 (HCT-116) was 416 nM, the GI50 [3] was 283 nM and the GI50 (OVCAR-4) was 788 nM. The GI50 (CCRF-CEM) was 332 nM, the GI50 (HCT-15) was 409 nM and the GI50 (SK-MEL-5) was 406 nM. The GI50 (SF-268) was 476 nM, the GI50 (SW-620) was 357 nM and the GI50 (ACHN) was 773 nM. The GI50 (MDA-MB-468) was 1500 nM, the GI50 (MCF7) was 537 nM and the GI50 (HOP-62) was 959 nM. The GI50 (KM12) was 425 nM, the GI50 (OVCAR-5) was 716 nM and the GI50 (PC-3) was 584 nM. The GI50 (NCI-H522) was 94 nM, the GI50 [4] was 334 nM and the GI50 (CAKI-1) was 318 nM. The GI50 (A549) was 649 nM, the GI50 (K562) was 353 nM and the GI50 [5] was 341 nM. For the same compound, the GI50 (NCI-H226) was 10800 nM, the GI50 (A498) was 275 nM and the GI50 (SR) was “inactive”. For the same compound, the GI50 (NCI-H322M) was 3020 nM, the GI50 (NCI-H460) was 339 nM and the GI50 (U-251) was 425 nM. For the same compound, the GI50 [6] was 286 nM, the GI50 (Malme-3M) was 348 nM and the GI50 [7] was 374 nM. For the same compound, the GI50 (T47D) was 1230 nM, the GI50 (MDA-MB-435) was 147 nM and the GI50 (SNB-19) was 728 nM. It also gave a GI50 [8] of 700 nM, a GI50 (MDA-MB-231) of 1020 nM and a GI50 (DU-145) of 801 nM. The GI50 (TK-10) was 3280 nM, the GI50 [9] was 542 nM and the GI50 (IGROV-1) was 958 nM. For the same compound, the GI50 (SK-MEL-28) was 896 nM, the GI50 [10] was 342 nM and the GI50 (OVCAR-8) was 659 nM. The GI50 (HT-29) was 367 nM, the GI50 (UO-31) was 573 nM and the GI50 (NCI-H23) was 983 nM. The GI50 (EKVX) was “inactive”, the GI50 (UACC-62) was 449 nM and the GI50 (786-0) was 501 nM. The GI50 (SN12C) was 661 nM, the GI50 [11] was 419 nM and the GI50 [12] was 1420 nM. For the same compound, the GI50 (HL-60(TB)) was 270 nM and the GI50 (OVCAR-3) was 309 nM.
